Laboratory results from US10799590B2, “Compositions containing a bitter tastant and at least one sophorolipid, and methods of reducing bitter taste attributed to a bitter tastant in an edible composition” (The United States of America, as Represented by the …, priority 2015, dated 2020).

System: cultured human fungiform taste papillae cells (HBO cells)
Assay: Calcium imaging of cultured human fungiform taste papillae (HBO) cells: response frequency, estimation of sweet potency
Type: cell-based
Excerpt: In vitro cell-based assay of sweet property. Establishment and maintenance of cultures of human fungiform taste papillae cells (HBO cells): We previously established the current proprietary protocol (Ozdener, H., et al., Chem. Senses, 31(3): 279-90 (2006); Ozdener, M. H., et al., Chem. Senses, 36(7): 601-12 (2011); Ozdener, H., et al., Isolation and culture of human fungiform taste papillae cells, J. Vis. Exp., 2012 May 17;(63):e3730) which allowed us to culture human fungiform taste papillae cells retaining their physiological and molecular characteristics for more than a year. […] The human fungiform taste papillae cells were cultured according to protocols that we have published (Ozdener et al. 2006, Ozdener et al. 2011). Human fungiform taste papillae were removed and immediately placed into an isolation solution followed by enzymatic digestion. Digested fungiform papillae were then gently minced with a surgical razor and seeded on collagen type-1 coated coverslips and incubated at 36° C. in a humidified environment containing 5% CO2. The fungiform taste papillae cells were cultured in Iscove's Modified Dulbecco's medium containing 10% fetal bovine serum, 1:5 ratio of MCDB (Molecular, Cellular, and Developmental Biology) 153 medium, and a triple cocktail of antibiotics (100 U/mL/100 μg/mL, penicillin/streptomycin, and 0.5 μg/mL fungizone). Culture medium was replaced every 5-7 days by one-third of fresh culture medium. Human fungiform taste papillae cells have been maintained in culture for a period of more than 1 year without loss of viability and with retention of the molecular and biochemical properties of acutely isolated taste cells (Ozdener et al., 2011). Calcium imaging: Cultured taste cells grown for 3-4 days glass coverslips which were loaded for 30-60 min with the calcium sensitive dye fura-2 by incubating the cells in Ringer solution (145 mM NaCl, 5 mM KCl, 1 mM MgCl2, 1 mM CaCl2, 1 mM Na-pyruvate, 20 mM Hepes-Na and Cellobiose 15 mM, pH 7.2 with osmolarity adjusted to 300-310 by 5M NaCl) supplemented with […] (Molecular Probes Inc., Eugene, Oreg.) and 10 mg/ml Pluronic® F127 (Molecular Probes Inc.). Coverslips were then placed in a recording chamber and continuously bathed with Ringer solution superfusion. Stimuli were dissolved in Ringer and then pH and osmolarity readjusted if needed. Cells were exposed to sweet ([…]), bitter mixture (PTC (phenylthiocarbamide)) 2mM+Salicin 5 mM+Denatonium 2 mM), guaifenesin (GF, 3 mM) and acetaminophen (APAP, 3 mM), and various sophorolipids stimuli: sophorose, sophorolipid palmitic acid, sophorolipid stearic acid, sophorolipid oleic acid. […]

OC[C@H]1O[C@@H](O[C@@H]2[C@@H](O)[C@H](O)[C@@H](CO)O[C@H]2O)[C@H](O)[C@@H](O)[C@@H]1O [Sophorose, 2-O-β-D-glucopyranosyl-β-D glucopyranose]
%-responsive cells (cultured human taste cells, concentration 292 uM): 16.05%
Concentration adjusted response frequency (tested at 292 uM, adjusted against sucralose 5 mM): 274.89
